Experiments:
[1] = test system: Escherichia coli; experiment: Quantitative Suspension Test, modified DIN EN ISO 11930:2019 with organic load; assay type: cell-based; details: 0.025% (w/v) Py-C12, pH 7.0, organic load, incubation 1 day
Method: (§1) In order to evaluate the bactericidal and fungicidal efficacy of Py-C12, Quantitative Suspension Tests were carried out under dirty conditions according to modified DIN EN ISO 11930:2019 with organic load using incubation periods of one and three days, respectively. For this purpose, 5-N-carboxamido-2-pyrrolidone-N-n-dodecyl propane-1,3-diamine (Py-C12) solutions were adjusted to pH 7.0 with HCl and subsequently diluted to corresponding test concentrations.

[2] = test system: Candida albicans; experiment: as above; assay type: cell-based; details: 0.025% (w/v) Py-C12, pH 7.0, organic load, incubation 1 day
Method: as §1

[3] = test system: Aspergillus brasiliensis; experiment: as above; assay type: cell-based; details: 0.5% (w/v) Py-C12, pH 7.0, organic load, incubation 3 days
Method: as §1

[4] = test system: Staphylococcus aureus; experiment: as above; assay type: cell-based; details: 0.01% (w/v) Py-C12, pH 7.0, organic load, incubation 1 day
Method: as §1

[5] = test system: Pseudomonas aeruginosa; experiment: as above; assay type: cell-based; details: 0.025% (w/v) Py-C12, pH 7.0, organic load, incubation 1 day
Method: as §1

[6] = test system: β-galactosidase-expressing E. coli strain; experiment: Wash resistance and biocidal activity of Py-C12 treated beech wood sheets (Example 19); assay type: cell-based; details: treated with 1% (w/v) free base; washed with water up to 30 washing steps, 15 min each; E. coli 4 days at 37° C.
Method: In a first step, 1% (w/v) Py-C12 free base in water) was warmed to 50° C. to obtain a liquid solution. After incubation of beech wood sheets with the Py-C12 solution, the samples were cooled to room temperature upon which the liquid Py-C12 was converted into a solid phase and thus immobilized to the material. After drying, samples were washed with water at room temperature […] for 15 minutes each time. Thereafter, all samples were inoculated with a β-galactosidase-expressing E. coli strain and then incubated for 4 days at 37° C.

[7] = Modulation of the state of matter by pH shift using HCl and NaOH (Example 7); assay type: physicochemical
[8] = test system: β-galactosidase-expressing E. coli strain; experiment: Wash resistance and biocidal activity of Py-C12 treated cotton textile (Example 6); assay type: cell-based; details: treated with 1% (w/v) pH 7.0, E. coli 3 days at 37° C.
Method: Round sterile cotton textile samples were treated with a liquid Py-C12 solution (1% (w/v) in water; pH 7.0) followed by intensive washing steps. For controls, samples were treated with water instead of Py-C12.
For testing wash resistance in an aqueous system samples were incubated in water for 20 h at 50° C. and then washed 16 times with water at 37° C. for 5 to 10 minutes each time.
For testing wash resistance in an alcoholic/acidic system, samples were washed 8 times with 2-propanol/1 mN HCl solution and 8 times with water in total.
After all washing steps, all samples were inoculated with a β-galactosidase-expressing E. coli strain and then incubated for 3 days at 37° C.

[9] = test system: β-galactosidase-expressing E. coli strain; experiment: Wash resistance and biocidal activity of Py-C12 treated silk fabric (Example 17); assay type: cell-based; details: treated with 1% (w/v) free base; washed 10, 20 and 30 times with water 15 min; E. coli 3 days at 37° C.
Method: In a first step, 1% (w/v) Py-C12 free base in water was warmed to 50° C. to obtain a liquid solution. After incubation with the Py-C12 solution, the samples were cooled to room temperature upon which the liquid Py-C12 was converted into a solid phase and thus immobilized to the material. After drying, samples were washed with water at room temperature 10, 20, and 30 times for 15 minutes each time. Thereafter, all samples were inoculated with a β-galactosidase-expressing E. coli strain and then incubated for 3 days at 37° C.

[10] = Influence of temperature on the state of matter of Py-C12 at pH 7.0 and pH 9.0 (Example 2); assay type: physicochemical; set-up: key to state of matter: X: liquid; o: solid; details: for solubility in water / state of matter: 1% (w/v); for state of matter: 1% w/v
Method: 1% (w/v) 5-N-carboxamido-2-pyrrolidone-N-n-dodecyl propane-1,3-diamine (Py-C12) free base was adjusted with HCl or NaOH to pH values 7.0 and 9.0 and subsequently incubated at temperatures between 2° C. and 60° C. […] (see table 2).

[11] = Modulation of the state of matter by salt concentration (Example 9); assay type: physicochemical; details: 2% (w/v), pH 7 (HCl), NaCl 0.5 M to 3 M in water, room temperature
Source text: 2% (w/v) 5-N-carboxamido-2-pyrrolidone-N′-n-dodecyl propane-1,3-diamine (Py-C12) was adjusted with HCl to pH 7 and combined with different concentrations of NaCl ranging from 0.5 M to 3 M in water at room temperature. A clearly visible precipitate (white color) is observed at concentrations of 1.5 M or more (see FIG. 4).

Compound: CCCCCCCCCCCCNCCCNC(=O)C1CCC(=O)N1 (stereo not shown) [Py-C12, 5-N-carboxamido-2-pyrrolidone-N′-n-dodecyl propane-1,3-diamine]
- Germ reduction factor log10 [1]: ≥5.5 log10
- Germ reduction factor log10 [2]: 4.2 log10
- Germ reduction factor log10 [3]: 4.6 log10
- Germ reduction factor log10 [4]: ≥5.6 log10
- Germ reduction factor log10 [5]: ≥5.6 log10
- bacterial growth on treated beech wood sheets after washing [6]: Blue coloured bacteria only appear on control sample
- solubility in water ([7]; 1% (w/v) free base adjusted with HCl to pH 7, room temperature): completely soluble
- state of matter after pH increase ([7]; 1% (w/v), NaOH added to increase pH above 9.0, time dependent): started to precipitate
- biocidal effect of treated cotton textile after washing ([8]; alcoholic/acidic system: 8 washes 2-propanol/1 mN HCl and 8 with water): completely colonized
- biocidal effect of treated cotton textile after washing ([8]; aqueous system: water 20 h at 50° C., then 16 water washes at 37° C.): maintained its biocidal effect
- bacterial growth on treated silk fabric after washing [9]: Blue coloured bacteria only appear in control sample
- solubility in water / state of matter ([10]; pH 7, temperatures between 2° C. and 60° C.): completely soluble
- solubility in water / state of matter ([10]; pH 9.0, temperatures between 2° C. and 60° C.): only present in liquid state at the tested temperatures of 50 °C and 60 °C
- state of matter ([10]; pH 7.0, 2° C.): X
- state of matter ([10]; pH 7.0, 4° C.): X
- state of matter ([10]; pH 7.0, 8° C.): X
- state of matter ([10]; pH 7.0, 12° C.): X
- state of matter ([10]; pH 7.0, 16° C.): X
- state of matter ([10]; pH 7.0, 20° C.): X
- state of matter ([10]; pH 7.0, 30° C.): X
- state of matter ([10]; pH 7.0, 38° C.): X
- state of matter ([10]; pH 7.0, 50° C.): X
- state of matter ([10]; pH 7.0, 60° C.): X
- state of matter ([10]; pH 9.0, 2° C.): o
- state of matter ([10]; pH 9.0, 4° C.): o
- state of matter ([10]; pH 9.0, 8° C.): o
- state of matter ([10]; pH 9.0, 12° C.): o
- state of matter ([10]; pH 9.0, 16° C.): o
- state of matter ([10]; pH 9.0, 20° C.): o
- state of matter ([10]; pH 9.0, 30° C.): o
- state of matter ([10]; pH 9.0, 38° C.): o
- state of matter ([10]; pH 9.0, 50° C.): X
- state of matter ([10]; pH 9.0, 60° C.): X
- NaCl concentration at which a clearly visible precipitate is observed [11]: ≥ 1.5 M

Reference: US20250287947A1, “BIOCIDES AND ADHESIVE BINDING THEREOF” (EBERHARD KARLS UNIVERSITÄT TÜBINGEN MEDIZINISCHE FAKULTÄT, priority 2022, published 2025)
